Source: patent publication US9776995B2, “Bicyclic sulfonamide compounds as sodium channel inhibitors” (AMGEN INC., priority 2013, dated 2017)

biological target: Nav 1.7 (Homo sapiens (Human), UniProt Q15858); assay: in-vitro Nav 1.7 PX data; assay type: cell-based; conditions: not given
Sequence (Q15858 whole entry): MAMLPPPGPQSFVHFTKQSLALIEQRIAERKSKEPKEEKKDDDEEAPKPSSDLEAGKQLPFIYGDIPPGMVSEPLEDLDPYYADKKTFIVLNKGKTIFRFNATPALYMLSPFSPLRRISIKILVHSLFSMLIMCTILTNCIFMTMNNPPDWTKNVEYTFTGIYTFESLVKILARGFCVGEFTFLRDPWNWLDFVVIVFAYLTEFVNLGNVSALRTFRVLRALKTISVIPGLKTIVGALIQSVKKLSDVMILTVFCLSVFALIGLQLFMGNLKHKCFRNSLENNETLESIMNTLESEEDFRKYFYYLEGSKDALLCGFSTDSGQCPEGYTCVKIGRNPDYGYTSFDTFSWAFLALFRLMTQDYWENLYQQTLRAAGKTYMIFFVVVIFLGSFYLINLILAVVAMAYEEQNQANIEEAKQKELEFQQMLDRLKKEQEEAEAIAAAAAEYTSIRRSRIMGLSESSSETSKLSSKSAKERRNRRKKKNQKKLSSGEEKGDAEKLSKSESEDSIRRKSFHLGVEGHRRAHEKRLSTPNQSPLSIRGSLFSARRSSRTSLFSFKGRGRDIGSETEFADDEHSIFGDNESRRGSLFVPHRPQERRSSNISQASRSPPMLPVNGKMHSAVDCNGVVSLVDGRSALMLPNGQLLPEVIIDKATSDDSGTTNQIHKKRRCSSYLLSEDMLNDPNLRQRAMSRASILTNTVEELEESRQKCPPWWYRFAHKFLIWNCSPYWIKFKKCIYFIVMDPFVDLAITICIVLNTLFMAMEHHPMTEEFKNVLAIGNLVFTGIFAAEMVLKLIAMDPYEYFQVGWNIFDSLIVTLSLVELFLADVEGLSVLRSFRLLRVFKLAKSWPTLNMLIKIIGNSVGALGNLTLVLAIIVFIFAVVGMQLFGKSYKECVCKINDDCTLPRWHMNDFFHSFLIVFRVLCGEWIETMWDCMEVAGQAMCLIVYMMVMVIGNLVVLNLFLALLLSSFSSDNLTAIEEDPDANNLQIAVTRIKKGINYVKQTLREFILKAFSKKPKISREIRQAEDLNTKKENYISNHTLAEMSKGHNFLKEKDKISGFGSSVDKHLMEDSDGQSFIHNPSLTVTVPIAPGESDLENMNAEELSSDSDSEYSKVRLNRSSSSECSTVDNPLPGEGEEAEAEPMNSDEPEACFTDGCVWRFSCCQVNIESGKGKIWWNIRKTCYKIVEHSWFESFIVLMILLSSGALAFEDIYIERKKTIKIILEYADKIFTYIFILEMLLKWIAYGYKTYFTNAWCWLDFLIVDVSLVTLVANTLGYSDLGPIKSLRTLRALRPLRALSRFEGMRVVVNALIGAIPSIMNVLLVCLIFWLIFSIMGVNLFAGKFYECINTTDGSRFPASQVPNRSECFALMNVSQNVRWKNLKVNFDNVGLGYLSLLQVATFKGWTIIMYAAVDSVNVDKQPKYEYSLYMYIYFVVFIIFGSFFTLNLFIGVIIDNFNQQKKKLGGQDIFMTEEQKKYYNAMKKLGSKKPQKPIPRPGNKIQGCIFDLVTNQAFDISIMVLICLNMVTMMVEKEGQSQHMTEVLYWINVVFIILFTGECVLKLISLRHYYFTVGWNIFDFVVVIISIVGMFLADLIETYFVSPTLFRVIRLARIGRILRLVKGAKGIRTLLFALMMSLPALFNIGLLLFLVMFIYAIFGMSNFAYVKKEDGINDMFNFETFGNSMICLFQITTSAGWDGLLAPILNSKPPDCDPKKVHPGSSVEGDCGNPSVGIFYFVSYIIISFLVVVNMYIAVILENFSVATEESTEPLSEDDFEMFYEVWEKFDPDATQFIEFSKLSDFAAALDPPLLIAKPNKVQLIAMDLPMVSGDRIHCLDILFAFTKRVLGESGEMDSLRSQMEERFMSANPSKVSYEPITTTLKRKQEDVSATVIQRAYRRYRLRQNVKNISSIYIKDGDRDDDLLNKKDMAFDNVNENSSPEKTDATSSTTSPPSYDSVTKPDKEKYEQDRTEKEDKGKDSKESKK

| Structure (SMILES) | IC50 [nM] |
| --- | --- |
| O=S(=O)(Nc1ccon1)c1ccc2c(-c3ccc(-c4cccc(F)c4)cc3CO)nccc2c1 [Example 12, 1-(3′-FLUORO-3-(HYDROXYMETHYL)-[1,1′-BIPHENYL]-4-YL)-N-(ISOXAZOL-3-YL)ISOQUINOLINE-6-SULFONAMIDE 2,2,2-TRIFLUOROACETATE] | 2210 |
| COc1cc(-c2cccc(C(F)(F)F)c2)c(F)cc1-c1nncc2cc(S(=O)(=O)Nc3ccon3)ccc12 [Example 3, 1-(2-FLUORO-5-METHOXY-3′-(TRIFLUOROMETHYL)-[1,1′-BIPHENYL]-4-YL)-N-(ISOXAZOL-3-YL)PHTHALAZINE-6-SULFONAMIDE] | 30.5 |
| COc1nnc(NS(=O)(=O)c2ccc3c(-c4ccc(-c5cc(F)cc(F)c5)cc4OC)nccc3c2)s1 [Example 8, 1-(3′,5′-DIFLUORO-3-METHOXY-[1,1′-BIPHENYL]-4-YL)-N-(5-METHOXY-1,3,4-THIADIAZOL-2-YL)ISOQUINOLINE-6-SULFONAMIDE] | 3290 |

same assay, conditions: PatchXpress (PX), in vitro

| Structure (SMILES) | IC50 [nM] |
| --- | --- |
| COc1cc(-c2ccc(Cl)c(C)c2)c(F)cc1-c1nccc2cc(S(=O)(=O)Nc3ncccn3)ccc12 [Example 88, 1-(4′-chloro-2-fluoro-5-methoxy-3′-methyl-4-biphenylyl)-N-2-pyrimidinyl-6-isoquinolinesulfonamide] | 227 |
| COc1cc(-c2ccc(Cl)c(C)c2)c(F)cc1-c1nccc2cc(S(=O)(=O)Nc3ccon3)ccc12 [Example 90, 1-(4′-chloro-2-fluoro-5-methoxy-3′-methyl-4-biphenylyl)-N-3-isoxazolyl-6-isoquinolinesulfonamide] | 59.5 |
| COc1cc(-c2ccc(Cl)c(F)c2)c(F)cc1-c1nccc2cc(S(=O)(=O)Nc3ccon3)ccc12 [Example 95, 1-(4′-chloro-2,3′-difluoro-5-methoxy-4-biphenylyl)-N-3-isoxazolyl-6-isoquinolinesulfonamide] | 69 |

More lines, now with the values ahead:

| IC50 [nM] | Structure (SMILES) |
| --- | --- |
| 727 | COc1nc(OC2CCC(F)(F)CC2)ccc1-c1nccc2cc(S(=O)(=O)Nc3ccncn3)ccc12 [Example 75, 1-(6-((4,4-difluorocyclohexyl)oxy)-2-methoxy-3-pyridinyl)-N-4-pyrimidinyl-6-isoquinolinesulfonamide] |
| 7710 | COc1nc(N2CCCC2)ccc1-c1nccc2cc(S(=O)(=O)Nc3ccncn3)ccc12 [Example 72, 1-(2-methoxy-6-(1-pyrrolidinyl)-3-pyridinyl)-N-4-pyrimidinyl-6-isoquinolinesulfonamide] |

same assay, conditions: in-vitro Nav 1.7 PX data

| Structure (SMILES) | IC50 [nM] |
| --- | --- |
| COc1cc(-c2cccnc2OC)ccc1-c1nccc2cc(S(=O)(=O)Nc3nncs3)ccc12 [Example 166, 1-(2-methoxy-4-(2-methoxy-3-pyridinyl)phenyl)-N-1,3,4-thiadiazol-2-yl-6-isoquinolinesulfonamide] | 794 |
| COc1cc(C(F)F)c(Cl)cc1-c1nccc2cc(S(=O)(=O)Nc3ccon3)ccc12 [Example 169, 1-(5-chloro-4-(difluoromethyl)-2-methoxyphenyl)-N-3-isoxazolyl-6-isoquinolinesulfonamide] | 104 |
| COc1ccc(C)c(-c2cc(C)c(-c3ncnc4cc(S(=O)(=O)Nc5ccon5)ccc34)cc2OC)c1 [Example 173, 4-(2,5′-dimethoxy-2′,5-dimethyl-4-biphenylyl)-N-3-isoxazolyl-7-quinazolinesulfonamide] | 3840 |

Further lines, results first:

| IC50 [nM] | Structure (SMILES) |
| --- | --- |
| 6000 | COc1cc(C#N)c(-c2cc(F)cc(F)c2)cc1-c1nccc2cc(S(=O)(=O)Nc3nncs3)ccc12 [Example 150, 1-(6-cyano-3′,5′-difluoro-4-methoxy-3-biphenylyl)-N-1,3,4-thiadiazol-2-yl-6-isoquinolinesulfonamide] |
| 1580 | COc1cc(Oc2ccc(F)c(C)c2)ccc1-c1nccc2cc(S(=O)(=O)Nc3ccncn3)ccc12 [Example 29, 1-(4-(4-FLUORO-3-METHYLPHENOXY)-2-METHOXYPHENYL)-N-(PYRIMIDIN-4-YL)ISOQUINOLINE-6-SULFONAMIDE] |

same assay, conditions: in-vitro PX

| IC50 [nM] | Structure (SMILES) |
| --- | --- |
| 1690 | COc1cc(-c2cccc(F)c2)ccc1C1c2ccc(S(=O)(=O)Nc3nncs3)cc2CCN1C(C)=O (stereo not shown) [Example 52, 2-ACETYL-1-(3′-FLUORO-3-METHOXY-[1,1′-BIPHENYL]-4-YL)-N-(1,3,4-THIADIAZOL-2-YL)-1,2,3,4-TETRAHYDROISOQUINOLINE-6-SULFONAMIDE] |
| 38.2 | COc1cc(-c2ccc(F)c(C)c2)c(Cl)cc1-c1ncnc2cc(S(=O)(=O)Nc3ccon3)ccc12 [Example 213, 4-(2-chloro-4′-fluoro-5-methoxy-3′-methyl-4-biphenylyl)-N-3-isoxazolyl-7-quinazolinesulfonamide] |

same assay, conditions: in-vitro PX (PatchXpress) data

| IC50 [nM] | Structure (SMILES) |
| --- | --- |
| 1610 | COc1cc(Oc2ccc(F)cn2)ccc1-c1nccc2cc(S(=O)(=O)Nc3ccon3)ccc12 [Example 195, 1-(4-((5-fluoro-2-pyridinyl)oxy)-2-methoxyphenyl)-N-3-isoxazolyl-6-isoquinolinesulfonamide] |
| 18700 | COc1cc(Oc2cc(F)cc(F)c2)ccc1-c1nccc2cc(S(=O)(=O)Nc3ccncn3)ccc12 [Example 178, 1-(4-(3,5-difluorophenoxy)-2-methoxyphenyl)-N-4-pyrimidinyl-6-isoquinolinesulfonamide] |

same assay, conditions: in-vitro PX data

| Structure (SMILES) | IC50 [nM] |
| --- | --- |
| COc1cc(-c2cccc(C(F)(F)F)c2)c(F)cc1-c1ncnc2cc(S(=O)(=O)Nc3ccon3)ccc12 [Example 102, 4-(2-fluoro-5-methoxy-3′-(trifluoromethyl)-4-biphenylyl)-N-3-isoxazolyl-7-quinazolinesulfonamide] | 22.9 |
| COc1cc(-c2cc(F)cc(F)c2)ccc1-c1nccc2cc(S(=O)(=O)Nc3nnc(C)s3)ccc12 [Example 133, 1-(3′,5′-difluoro-3-methoxy-4-biphenylyl)-N-(5-methyl-1,3,4-thiadiazol-2-yl)-6-isoquinolinesulfonamide] | 1560 |
| COc1cc(-c2cc(F)cc(F)c2)ccc1-c1nccc2cc(S(=O)(=O)NC(C)=O)ccc12 [Example 136, N-((1-(3′,5′-difluoro-3-methoxy-4-biphenylyl)-6-isoquinolinyl)sulfonyl)acetamide] | 11200 |

The remaining lines, values ahead:

| IC50 [nM] | Structure (SMILES) |
| --- | --- |
| 24 | COc1cc(-c2ccc(Cl)c(C)c2)c(F)cc1-c1ncnc2cc(S(=O)(=O)Nc3ccon3)ccc12 [Example 103, 4-(4′-chloro-2-fluoro-5-methoxy-3′-methyl-4-biphenylyl)-N-3-isoxazolyl-7-quinazolinesulfonamide] |
| 3510 | COc1cc(-c2cc(F)cc(F)c2)ccc1-c1nccc2cc(S(=O)(=O)Nc3ccno3)ccc12 [Example 128, 1-(3′,5′-difluoro-3-methoxy-4-biphenylyl)-N-5-isoxazolyl-6-isoquinolinesulfonamide] |
| 73.9 | COc1cc(-c2ccc(Cl)c(F)c2)c(Cl)cc1-c1nccc2cc(S(=O)(=O)Nc3ccon3)ccc12 [Example 101, 1-(2,4′-dichloro-3′-fluoro-5-methoxy-4-biphenylyl)-N-3-isoxazolyl-6-isoquinolinesulfonamide] |
| 1280 | COc1nsc(NS(=O)(=O)c2ccc3c(-c4ccc(-c5cc(F)cc(F)c5)cc4OC)nccc3c2)n1 [Example 134, 1-(3′,5′-difluoro-3-methoxy-4-biphenylyl)-N-(3-methoxy-1,2,4-thiadiazol-5-yl)-6-isoquinolinesulfonamide] |
| 4190 | COc1cc(-c2cc(F)cc(F)c2)ccc1-c1nccc2cc(S(=O)(=O)Nc3cc(C)on3)ccc12 [Example 126, 1-(3′,5′-difluoro-3-methoxy-4-biphenylyl)-N-(5-methyl-3-isoxazolyl)-6-isoquinolinesulfonamide] |
